Source: article PMC10972148, “Cloning and Characterization of a Novel N-Acetyl-D-galactosamine-4-O-sulfate Sulfatase, SulA1, from a Marine Arthrobacter Strain” (Marine Drugs, 2024)

Test system: T1, SulA1
T1 construct: forward primer encodes MVSSSPA (translated here)
Assay: GalNAc release by HPAEC-PAD, Michaelis-Menten nonlinear fit
Type: biochemical, Arthrobacter sp. MAT3885
Conditions: pH 5.5, 40 °C, 30 min, 0-20 mM substrate; 100 mM acetate buffer; unit not printed beside the value, taken from the mM axis of Figure 9B

- Km: 6.94 ± 0.053 mM
SMILES: CC(=O)N[C@H]1C(O)O[C@H](CO)[C@H](OS(=O)(=O)O)[C@@H]1O (stereo partly drawn) [GalNAc4S, N-Acetyl-D-galactosamine-4-sulfate]
